Measurements from US20120083522A1, “MODULATION OF INFLAMMATORY RESPONSES BY FACTOR XI” (Isis Pharmaceuitcals, inc., priority 2009, published 2012).
In the oligonucleotide strings, read from the 5' end, every base follows the letter of its sugar. An asterisk marks phosphorothioate; unmarked linkages are phosphodiester. Other units and linkages are bracketed, terminal groups are in braces. A string of capitals states the bases alone. e = 2'-O-(2-methoxyethyl) (MOE); [5mC] = 5-methylcytosine; d = 2'-deoxy (DNA)

Key:
Type in all cases: cell-based
human Factor XI mRNA [1] = test: Dose-dependent inhibition in HepG2 cells, electroporation (Example 4); conditions: 16 hours
How it was run: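 HepG2 cells electroporated with 0.7, 2.2, 6.7 or 20 μM antisense gapmer and harvested after ~16 h. Factor XI mRNA quantified by qRT-PCR (primer probe set RTS 2966), normalised to total RNA (RIBOGREEN). Reported as percent inhibition versus untreated control cells.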

human Factor XI mRNA [2] = test: Dose-dependent inhibition in HepG2 cells, lipofectin (Example 4); conditions: 16 hours
How it was run: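 HepG2 cells at 10,000 per well were lipofectin-transfected with 9.375, 18.75, 37.5 or 75 nM antisense oligonucleotide for about 16 h. Factor XI mRNA was quantified by real-time PCR (primer probe set RTS 2966) and normalised to RIBOGREEN total RNA. Values are percent inhibition versus untreated cells.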

human Factor XI mRNA [3] = test: Dose-dependent antisense inhibition in HepG2 cells, lipofectin (Example 2); conditions: approximately 16 hours
Method: Cells were plated at a density of 10,000 cells per well and transfected using lipofectin reagent with 9.375 nM, 18.75 nM, 37.5 nM, 75 nM, and 150 nM concentrations of antisense oligonucleotide, as specified in Table 3. After a treatment period of approximately 16 hours, RNA was isolated from the cells and Factor XI mRNA levels were measured by quantitative real-time PCR. Human Factor XI primer probe set RTS 2966 (forward sequence: […], incorporated herein as SEQ ID NO: 3; reverse sequence: […], incorporated herein as SEQ ID NO: 4; probe sequence: TTGTCTACTGAAGCACACCCAAACAGGGAX, wherein X is the fluorophore, incorporated herein as SEQ ID NO: 5) was used to measure mRNA levels. Factor XI mRNA levels were adjusted according to total RNA content, as measured by RIBOGREEN®. Results are presented as percent inhibition of Factor XI, relative to untreated control cells.

human Factor XI mRNA [4] = test: Antisense inhibition in HepG2 cells by microwalk gapmers, 75 nM, lipofectin (Example 3); conditions: HepG2 cells, 75 nM, oligonucleotides targeted to nucleobases 1275 to 1318 of SEQ ID NO: 1
How it was run: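 HepG2 cells (10,000 per well) were transfected with 75 nM gapmer using lipofectin and treated for about 24 h. Factor XI mRNA was quantified by real-time PCR, normalized to RiboGreen total RNA and expressed as percent inhibition versus untreated controls.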

human Factor XI mRNA [5] = test: Antisense inhibition in HepG2 cells by microwalk gapmers, 8,000 nM, electroporation (Example 14); conditions: HepG2 cells, 8,000 nM
Method: These microwalk gapmers were tested in vitro. Cultured HepG2 cells at a density of 20,000 cells per well were transfected using electroporation with 8,000 nM antisense oligonucleotide. After a treatment period of approximately 24 hours, RNA was isolated from the cells and Factor XI mRNA levels were measured by quantitative real-time PCR. Factor XI mRNA levels were adjusted according to total RNA content, as measured by RIBOGREEN. Results are presented as percent inhibition of Factor XI, relative to untreated control cells.
The chimeric antisense oligonucleotides in Table 51 were designed as 5-10-5 MOE, 5-8-5 and 6-8-6 MOE gapmers. The first two listed gapmers in Table 51 are the original gapmers (ISIS 416850 and ISIS 416858) from which ISIS 445493-445543 were designed via microwalk, and are designated by an asterisk. The 5-10-5 gapmers are 20 nucleotides in length, wherein the central gap segment is comprised of ten 2′-deoxynucleotides and is flanked on both sides (in the 5′ and 3′ directions) by wings comprising five nucleotides each. The 5-8-5 gapmers are 18 nucleotides in length, wherein the central gap segment is comprised of eight 2′-deoxynucleotides and is flanked on both sides (in the 5′ and 3′ directions) by wings comprising five nucleotides each. The 6-8-6 gapmers are 20 nucleotides in length, wherein the central gap segment is comprised of eight 2′-deoxynucleotides and is flanked on both sides (in the 5′ and 3′ directions) by wings comprising six nucleotides each. For each of the motifs (5-10-5, 5-8-5 and 6-8-6), each nucleotide in the 5′ wing segment and each nucleotide in the 3′ wing segment has a 2′-MOE modification. The internucleoside linkages throughout each gapmer are phosphorothioate (P═S) linkages. All cytidine residues throughout each gapmer are 5-methylcytidines. “Human Target start site” indicates the 5′-most nucleotide to which the gapmer is targeted in the human sequence. “Human Target stop site” indicates the 3′-most nucleotide to which the gapmer is targeted in the human sequence. Each gapmer listed in Table 51 is targeted to SEQ ID NO: 1 (GENBANK Accession No. NM_000128.3). Each gapmer is Table 51 is also fully cross-reactive with the rhesus monkey Factor XI gene sequence, designated herein as SEQ ID NO: 274 (exons 1-15 GENBANK Accession No. NW—001118167.1). ‘Rhesus monkey start site’ indicates the 5′-most nucleotide to which the gapmer is targeted in the rhesus monkey sequence. ‘Rhesus monkey stop site’ indicates the 3′-most nucleotide to which the gapmer is targeted to the rhesus monkey sequence.

human Factor XI mRNA [6] = test: Dose-dependent inhibition and IC50 in HepG2 cells, electroporation (Example 15)
Method: Cells were plated at a density of 20,000 cells per well and transfected using electroporation with 123.46 nM, 370.37 nM, 1,111.11 nM, 3,333.33 nM and 10,000 nM concentrations of antisense oligonucleotide, as specified in Table 52. After a treatment period of approximately 16 hours, RNA was isolated from the cells and Factor XI mRNA levels were measured by quantitative real-time PCR. Human Factor XI primer probe set RTS 2966 was used to measure mRNA levels. Factor XI mRNA levels were adjusted according to total RNA content, as measured by RIBOGREEN. Results are presented as percent inhibition of Factor XI, relative to untreated control cells.

Substance	percent inhibition of Factor XI (human Factor XI mRNA [3]; 9.375 nM)	percent inhibition of Factor XI (human Factor XI mRNA [3]; 18.75 nM)	percent inhibition of Factor XI (human Factor XI mRNA [3]; 37.5 nM)	percent inhibition of Factor XI (human Factor XI mRNA [3]; 75 nM)	percent inhibition of Factor XI (human Factor XI mRNA [3]; 150 nM)	Percent inhibition of human Factor XI mRNA levels (human Factor XI mRNA [5])	percent inhibition of Factor XI mRNA (human Factor XI mRNA [6]; electroporation, 123.47 nM)	percent inhibition of Factor XI mRNA (human Factor XI mRNA [6]; electroporation, 370.37 nM)	percent inhibition of Factor XI mRNA (human Factor XI mRNA [6]; electroporation, 1,111.11 nM)	percent inhibition of Factor XI mRNA (human Factor XI mRNA [6]; electroporation, 3,333.33 nM)	percent inhibition of Factor XI mRNA (human Factor XI mRNA [6]; electroporation, 10,000.0 nM)	other results
412203 (antisense eA*eA*eT*eG*eT*d[5mC]*dT*dT*dT*dG*dT*dT*dG*d[5mC]*dA*eA*eG*e[5mC]*eG*e[5mC]) [compound 412203]	29%	15%	61%	77%	82%	–	–	–	–	–	–	percent inhibition of Factor XI mRNA, relative to untreated control cells (human Factor XI mRNA [1]; 0.7 μM): 11%; percent inhibition of Factor XI mRNA, relative to untreated control cells (human Factor XI mRNA [1]; 2.2 μM): 60%; percent inhibition of Factor XI mRNA, relative to untreated control cells (human Factor XI mRNA [1]; 6.7 μM): 70%; percent inhibition of Factor XI mRNA, relative to untreated control cells (human Factor XI mRNA [1]; 20 μM): 91%; percent inhibition of Factor XI mRNA, relative to untreated control cells (human Factor XI mRNA [2]; 9.375 nM): 33%; percent inhibition of Factor XI mRNA, relative to untreated control cells (human Factor XI mRNA [2]; 18.75 nM): 40%; percent inhibition of Factor XI mRNA, relative to untreated control cells (human Factor XI mRNA [2]; 37.5 nM): 62%; percent inhibition of Factor XI mRNA, relative to untreated control cells (human Factor XI mRNA [2]; 75 nM): 74%
413467 (antisense eG*eG*eT*e[5mC]*e[5mC]*dA*d[5mC]*dA*dT*dA*dA*dA*dT*dG*dT*e[5mC]*eT*eT*eT*eG) [compound 413467]	2%	35%	49%	61%	47%	–	–	–	–	–	–	percent inhibition of Factor XI mRNA, relative to untreated control cells (human Factor XI mRNA [1]; 0.7 μM): 5%; percent inhibition of Factor XI mRNA, relative to untreated control cells (human Factor XI mRNA [1]; 2.2 μM): 31%; percent inhibition of Factor XI mRNA, relative to untreated control cells (human Factor XI mRNA [1]; 6.7 μM): 65%; percent inhibition of Factor XI mRNA, relative to untreated control cells (human Factor XI mRNA [1]; 20 μM): 89%; percent inhibition of Factor XI mRNA, relative to untreated control cells (human Factor XI mRNA [2]; 9.375 nM): 35%; percent inhibition of Factor XI mRNA, relative to untreated control cells (human Factor XI mRNA [2]; 18.75 nM): 51%; percent inhibition of Factor XI mRNA, relative to untreated control cells (human Factor XI mRNA [2]; 37.5 nM): 62%; percent inhibition of Factor XI mRNA, relative to untreated control cells (human Factor XI mRNA [2]; 75 nM): 69%
413468 (antisense eG*eT*e[5mC]*eT*eA*dG*dG*dT*d[5mC]*d[5mC]*dA*d[5mC]*dA*dT*dA*eA*eA*eT*eG*eT) [compound 413468]	14%	34%	56%	78%	75%	–	–	–	–	–	–	–
413469 (antisense eT*eG*e[5mC]*e[5mC]*e[5mC]*dT*dT*d[5mC]*dA*dT*dG*dT*d[5mC]*dT*dA*eG*eG*eT*e[5mC]*e[5mC]) [compound 413469]	24%	33%	53%	70%	84%	–	–	–	–	–	–	–
416849 (antisense eG*e[5mC]*eA*e[5mC]*eA*dG*dT*dT*dT*d[5mC]*dT*dG*dG*d[5mC]*dA*eG*eG*e[5mC]*e[5mC]*eT) [compound 416849]	–	–	–	–	–	88%	5%	5%	26%	57%	68%	% inhibition of human Factor XI mRNA levels (human Factor XI mRNA [4]): 88%
416857 (antisense e[5mC]*eG*eG*e[5mC]*eA*dT*dT*dG*dG*dT*dG*d[5mC]*dA*d[5mC]*dA*eG*eT*eT*eT*e[5mC]) [compound 416857]	–	–	–	–	–	91%	2%	20%	35%	62%	72%	% inhibition of human Factor XI mRNA levels (human Factor XI mRNA [4]): 92%
416865 (antisense eT*eG*eG*e[5mC]*eA*dG*d[5mC]*dG*dG*dA*d[5mC]*dG*dG*d[5mC]*dA*eT*eT*eG*eG*eT) [compound 416865]	–	–	–	–	–	86%	–	–	–	–	–	% inhibition of human Factor XI mRNA levels (human Factor XI mRNA [4]): 88%
445498 (antisense GGTGCACAGTTTCTGGCAGG; 6-8-6 gapmer chemistry, chemistry not fully specified) [compound 445498]	–	–	–	–	–	83%	3%	1%	27%	50%	58%	–
445503 (antisense GCATTGGTGCACAGTTTCTG; 6-8-6 gapmer chemical modifications, chemistry not fully specified) [compound 445503]	–	–	–	–	–	89%	0%	0%	22%	36%	60%	IC50 (human Factor XI mRNA [6]; electroporation): 5.9 µM
445504 (antisense eG*eG*e[5mC]*eA*eT*eT*dG*dG*dT*dG*d[5mC]*dA*d[5mC]*dA*eG*eT*eT*eT*e[5mC]*eT) [compound 445504]	–	–	–	–	–	87%	8%	20%	38%	53%	68%	–
445505 (antisense e[5mC]*eG*eG*e[5mC]*eA*eT*dT*dG*dG*dT*dG*d[5mC]*dA*d[5mC]*eA*eG*eT*eT*eT*e[5mC]) [compound 445505]	–	–	–	–	–	89%	12%	30%	39%	59%	77%	–
445532 (antisense e[5mC]*eG*eG*e[5mC]*eA*dT*dT*dG*dG*dT*dG*d[5mC]*dA*e[5mC]*eA*eG*eT*eT) [compound 445532]	–	–	–	–	–	89%	5%	12%	39%	60%	70%	–
